Among the data in patent US6372770B1, “Benzoxazoles” (Euro-Celtique, S.A., priority 1994, dated 2002) are melting point and IC50 values, retold here.

Like-named read-outs stand apart in the source and are kept apart here. Where only a bound is given, the exact number is not on record here.

One data set deals with T1, PDE III (Homo sapiens, UniProt Q14432).
T1 construct: Fractions containing PDE III activity are pooled and dialyzed overnight; from tissue; host or cells: human platelets
Nature of the data set: Type III PDE inhibition, hydrolysis of [3H]-cyclic AMP. The format is biochemical. To be noted: Type III PDE isolated from human platelets; 0.2 μM cyclic AMP. Here is the method:
The Type III PDE is isolated from human platelets using a procedure similar to that previously described by Washer, R. E. et al., Biochem. Pharmacol., 35:787, 1986. Briefly, 1-2 units of platelets are suspended in an equal volume of buffer (20 mM Tris-HCl, pH 7.5, containing 2 mM magnesium acetate, 1 mM dithiothreitol, and 5 mM Na2EDTA). The proteinase inhibitor phenylmethyl-sulfonyl fluoride (PMSF) is also included in this buffer at a final concentration of 200 μM. The suspension is homogenized using a polytron and the homogenate centrifuged at 100,000×g for 60 minutes. This and all subsequent procedures are performed at 0-4° C. The supernatant is then filtered through four layers of gauze and applied to a DEAE-Trisacryl M column, previously equilibrated with buffer B (20 mM Tris-HCl, pH 7.5, containing 1 mM magnesium acetate, 1 mM dithiothreitol and 200 μM PMSF). After application of the sample, the column is washed with several bed volumes of buffer B, after which the different forms of PDE are eluted from the column using two successive linear NaCl gradients (0.05-0.15 M, 300 ml total; 0.15-0.40 M, 200 ml total). Five ml fractions are collected and assayed for cyclic AMP and cyclic GMP PDE activity. Fractions containing PDE III activity are pooled and dialyzed overnight against 4 L of buffer B. The dialyzed PDE III is then concentrated to 10% of the original volume, diluted to 50% with ethylene glycol monoethyl ether and stored at −20° C. PDE III can typically be retained for up to four weeks with little or no loss of activity.
Enzyme activity is assessed by measuring the hydrolysis of [^3H]-cyclic AMP, as described by Thompson, W. J. et al., Adv. Cyclic Nucleotide Res. 10:69, 1979. The cyclic AMP concentration used in this assay is 0.2 μM, which approximates to the Km value. Protein concentration is adjusted to ensure that no more than 15% of the available substrate is hydrolyzed during the incubation period.
(§1) All test compounds are dissolved in dimethyl sulfoxide (final concentration of 2.5%). This concentration of dimethyl sulfoxide inhibits enzyme activity by approximately 10%.

In data set [1] the test system is T2, PDE IV.
T2 construct: PDE IV IC50; other: Type IV PDE isolated from bovine tracheal smooth muscle; rolipram run in the
Nature of the data set: Type IV PDE inhibition, hydrolysis of [3H]-cyclic AMP. It counts as biochemical, bovine.
Text: The PDE IV inhibitory compounds of the present invention may be examined for their PDE IV inhibitory effects via the techniques set forth in the following examples, wherein the ability of the compounds to inhibit PDE IV isolated from bovine tracheal smooth muscle is set forth.
The Type IV PDE is isolated from bovine tracheal smooth muscle using a procedure similar to that previously described by Silver, P. J. et al., Eur. J. Pharmacol. 150:85,1988.(1). Briefly, smooth muscle from bovine trachea is minced and homogenized using a polytron in 10 volumes of an extraction buffer containing 10 mM Tris-acetate (pH 7.5), 2 mM magnesium chloride, 1 mM dithiothreitol and 2,000 units/ml of aprotinin. This and all subsequent procedures are performed at 0-4° C. The homogenate is sonicated and then centrifuged at 48,000×g for 30 minutes. The resulting supernatant is applied to a DEAE Trisacryl M column previously equilibrated with sodium acetate and dithiothreitol. After applications of the sample, the column is washed with sodium acetate/dithiothreitol, after whlich the different forms of PDE are eluted from the column using a linear Tris-HCl/NaCl gradient. Fractions containing Type IV PDE are collected, dialyzed and concentrated to 14% of the original volume. The concentrated fractions are diluted to 50% with ethylene glycol and stored at −20° C.
Enzyme activity is assessed by measuring the hydrolysis of [^3H]-cyclic AMP, as described by Thompson, W. J. et al., Adv. Cyclic Nucleotide Res. 10:69, 1979. The cyclic AMP concentration used in this assay is 0.2 μM, which approximates the Km value. Protein concentration is adjusted to ensure that no more than 15% of the available substrate is hydrolyzed during the incubation period.
as §1

Data set [2] deals with PDE IV. The note with it: cited from earlier work.
Setting [3] is: Type IV PDE isolated from bovine tracheal smooth muscle, 0.2 μM cyclic AMP, read-out: PDE IV IC50.

T1 sequence (Q14432 whole entry): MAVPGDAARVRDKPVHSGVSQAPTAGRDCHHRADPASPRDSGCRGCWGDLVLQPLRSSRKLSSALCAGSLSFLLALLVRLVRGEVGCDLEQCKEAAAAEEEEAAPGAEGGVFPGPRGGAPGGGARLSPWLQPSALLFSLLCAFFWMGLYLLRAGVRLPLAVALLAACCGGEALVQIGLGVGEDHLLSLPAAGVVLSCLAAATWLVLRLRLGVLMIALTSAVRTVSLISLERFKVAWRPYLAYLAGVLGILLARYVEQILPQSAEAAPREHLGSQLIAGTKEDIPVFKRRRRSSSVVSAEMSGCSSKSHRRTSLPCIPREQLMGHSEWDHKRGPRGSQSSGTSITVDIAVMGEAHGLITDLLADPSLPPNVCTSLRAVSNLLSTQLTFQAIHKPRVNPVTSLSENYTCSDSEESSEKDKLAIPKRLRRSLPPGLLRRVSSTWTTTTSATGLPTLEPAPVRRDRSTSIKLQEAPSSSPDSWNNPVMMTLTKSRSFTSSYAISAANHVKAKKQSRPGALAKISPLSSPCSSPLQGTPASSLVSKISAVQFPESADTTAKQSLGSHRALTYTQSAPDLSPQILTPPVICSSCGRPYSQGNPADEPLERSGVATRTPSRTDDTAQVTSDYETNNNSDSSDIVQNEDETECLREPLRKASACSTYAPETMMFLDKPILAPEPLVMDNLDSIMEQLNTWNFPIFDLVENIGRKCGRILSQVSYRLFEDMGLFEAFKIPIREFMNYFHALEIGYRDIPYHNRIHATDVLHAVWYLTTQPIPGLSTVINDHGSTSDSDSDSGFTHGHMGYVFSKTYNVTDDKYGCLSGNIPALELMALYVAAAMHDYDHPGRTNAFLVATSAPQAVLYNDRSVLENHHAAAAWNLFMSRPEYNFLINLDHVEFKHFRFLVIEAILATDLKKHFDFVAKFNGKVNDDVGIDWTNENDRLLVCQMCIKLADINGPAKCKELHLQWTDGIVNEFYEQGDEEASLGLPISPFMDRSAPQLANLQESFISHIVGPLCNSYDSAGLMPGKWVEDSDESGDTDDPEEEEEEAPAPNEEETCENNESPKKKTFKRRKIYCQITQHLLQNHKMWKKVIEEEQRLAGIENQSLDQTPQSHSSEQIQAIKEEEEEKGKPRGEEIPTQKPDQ

Compound `CC(=O)CCc1cc(Cl)cc2nc(-c3ccccc3Cl)oc12` [Example 9, 4-(5-Chloro-2-(2-chlorophenyl)benzoxazol-7-yl)butan-2-one] showed a melting point of 109 to 110 °C. Besides, the IC50 against PDE III was over 300 µM. In the data set with PDE IV [1] (setting [3]), the IC50 was determined as 0.6 µM.
`COc1ccc(Cc2nc3cc(Cl)cc(CC=O)c3o2)cc1OC1CCCC1` [Example 25, 2-(3-Cyclopentyloxy-4-methoxybenzyl)-5-chlorobenzoxazole-7-ethanal] showed a melting point of 66 to 68 °C. The compound further came in with an IC50 at PDE III of 118 µM. Besides, the IC50 with PDE IV [1] (setting [3]) is 0.65 µM.
For `COc1ccc(Cc2nc3cc(Cl)cc(CC=NO)c3o2)cc1OC1CCCC1` [Example 26, 2-(3-Cyclopentyloxy-4-methoxybenzyl)-5-chlorobenzoxazole-7-ethanal Oxime], in that order: 149 to 151 °C, 11.4 µM and 0.37 µM.
`OCCCc1cc(Cl)cc2nc(Cc3ccccc3)oc12` [Example 37, 2-Benzyl-5-chloro-7-(3-hydroxy-1-propyl)Benzoxazole]: the IC50 came to 77 µM against PDE III and 39.1 µM in the data set on PDE IV [1] (setting [3]).
For `C=CCc1cc(Cl)cc2nc(Cc3ccccc3Cl)oc12` [Example 38, 2-(2-Chlorobenzyl)-5-chloro-7-allylbenzoxazole], in that order: 107 µM and 5.4 µM.
Taken in the same sequence, the figures for `COCCCc1cc(Cl)cc2nc(Cc3ccccc3Cl)oc12` [Example 39, 2-(2-Chlorobenzyl)-5-chloro-7-(3-methoxy-1-propyl)Benzoxazole] were 53.9 µM and 15.2 µM.
For `CCCc1cc(Cl)cc2nc(Cc3ccc(OC)c(OC4CCCC4)c3)oc12` [Example 40, 2-(3-Cyclopentyloxy-4-methoxybenzyl)-5-chloro-7-propylbenzoxazole], in that order: over 300 µM and 0.92 µM.
Consider `OCCCc1cccc2nc(Cc3ccccc3Cl)oc12` [Example 41, 2-(2-Chlorobenzyl)-7-(3-hydroxy-1-propyl)Benzoxazole], for which the IC50 at PDE III worked out at 100 µM; with PDE IV [1] (setting [3]), 69.3 µM.
Taken in the same sequence, the figures for `OCCCc1cc(Cl)cc2nc(Cc3cccc(Cl)c3)oc12` [Example 42, 3-[5-Chloro-2-(3-chlorobenzyl)benzoxazol-7-yl]propan-1-ol] were 48.6 µM and 16 µM.
Consider `COc1ccc(CCc2nc3cc(Cl)ccc3o2)cc1OC` [Example 43, 5-Chloro-2-[2-(3,4-dimethoxyphenyl)ethyl]Benzoxazole], for which the IC50 against PDE III is over 300 µM; with PDE IV [1] (setting [3]) it was 16.3 µM.
For `COc1ccc(-c2nc3cc(Cl)ccc3o2)cc1OC` [Example 44, 5-Chloro-2-(3,4-dimethoxyphenyl)Benzoxazole], in that order: over 300 µM and 19.3 µM.
Taken in the same sequence, the figures for `CC(C)(C)c1cc(Cc2nc3ccccc3o2)cc(C(C)(C)C)c1O` [Example 45, 2-[4-Hydroxy-3,5-di-t-butyl-benzyl]Benzoxazole] were 72.4 µM and 19.5 µM.
Taken in the same sequence, the figures for `COC(=O)c1cccc2oc(Cc3cc(C(C)(C)C)c(O)c(C(C)(C)C)c3)nc12` [Example 46, 2-[4-Hydroxy-3,5-di-t-butyl-benzyl]-4-carbomethoxybenzoxazole] were 702 µM and 21.5 µM.
With `CC(C)(C)c1cc(CCc2nc3ccccc3o2)cc(C(C)(C)C)c1O` [Example 47, 2-[2-(4-Hydroxy-3,5-di-t-butyl-phenyl)]Ethylbenzoxazole], the IC50 on PDE III was over 300 µM; in the data set on PDE IV [1] (setting [3]) it was 91.5 µM.
For the compound `NC(=O)CCc1cc(Cl)cc2nc(Cc3ccccc3Cl)oc12` [Example 55(a), 5-Chloro-2-(2-chlorobenzyl)-benzoxazole-7-propanamide], the melting point was in the range of 181 to 183 °C.
Same read-out and setting: the result for `CC(=O)Oc1c(C(C)(C)C)cc(CCc2nc3cc(Cl)cc(CCc4ccccn4)c3o2)cc1C(C)(C)C` [Example 58(b), 2-[2-(4-acetoxy-3,5-di-t-butyl-phenyl)ethyl]-5-chloro-7-[2-(2-pyridyl)ethyl]-benzoxazole] reads 134 to 135 °C; that for `Clc1cc(C#Cc2nccs2)c2oc(Cc3ccccc3Cl)nc2c1` [Example 59(a), 5-chloro-2-(2-chlorobenzyl)-7-[2-(2-thiazolyl)ethynyl]-benzoxazole], 149 to 151 °C.
Compound `OCCCCCc1cc(Cl)cc2nc(Cc3ccccc3Cl)oc12` [Example 60(b), 5-chloro-2-(2-chlorobenzyl)-7-(5-hydroxypentyl)-benzoxazole] gave a melting point of 72 to 79 °C.
Consider `COc1ccc(Cc2nc3cccc(CCCO)c3o2)cc1OC` [Example 61, 2-(3,4-dimethoxybenzyl)-7-(3-hydroxy-propyl)-benzoxazole], for which the melting point was 95 to 97 °C.
Regarding `COc1ccc(C2CNC(=O)C2)cc1OC1CCCC1` (stereo not drawn) [Rolipram, reference compound], the IC50 was 3.5 µM with PDE IV [2] (historically considered value, read-out: PDE IV IC50, historical value) and 2.8 µM in the data set with PDE IV [1] (read-out: concentration which yields 50% inhibition of PDE IV (IC50), value of the description, rolipram run in the same assay).
Consider `Cn1c(=O)c2[nH]cnc2n(C)c1=O` [theophylline], for which the IC50 in the data set with PDE IV [2] (read-out: concentration giving 50% inhibition of PDE IV, stated in the description without a test) was about 350 µM.
